These molecules were tested against T1, Induced myeloid leukemia cell differentiation protein Mcl-1 [C286S] (Homo sapiens, UniProt Q07820, C286S) (assay: Method B: Inhibition of Mcl-1 by the Fluorescence Quenching Assay).
T1 construct: gene MCL1
Experimental: The addition of a compound which binds competitively to the same site as the peptide will result in an increase in the fluorescence intensity of the protein due to displacement of the fluorescence quencher. An 11-point serial dilution of each compound was prepared in DMSO, the final buffer conditions were 10 mM 4-(2-hydroxyethyl)-1-piperazineethanesulfonic acid [HEPES], 150 mM NaCl, 0.05% Tween 20, pH 7.4 and 5% DMSO. The final protein concentration in the assay was 1 nM with the peptide present at 10, 20 or 400 nM. The experiments were incubated for 2 hours at room temperature before fluorescence intensity was measured on a Biotek SynergyNeo plate reader (Excitation 620 nm, emission 680 nm). The dose response curves were plotted with XL-Fit software using a 4-Parameter Logistic Model (Sigmoidal DoseResponse Model) and the inhibitory concentrations that gave a 50% increase in fluorescence intensity was determined (IC50). The Ki values were determined from the IC50 values according to Cer et al, Nucleic Acids Res, 2009, 37 (WebServer issue): W441-W445. Inhibition constants (Ki) are determined from complete binding inhibition curves (cKi) or from estimated from incomplete binding inhibition curves (eKi) in most cases due to low activity.

T1 sequence (Q07820 whole entry C286S, looked up): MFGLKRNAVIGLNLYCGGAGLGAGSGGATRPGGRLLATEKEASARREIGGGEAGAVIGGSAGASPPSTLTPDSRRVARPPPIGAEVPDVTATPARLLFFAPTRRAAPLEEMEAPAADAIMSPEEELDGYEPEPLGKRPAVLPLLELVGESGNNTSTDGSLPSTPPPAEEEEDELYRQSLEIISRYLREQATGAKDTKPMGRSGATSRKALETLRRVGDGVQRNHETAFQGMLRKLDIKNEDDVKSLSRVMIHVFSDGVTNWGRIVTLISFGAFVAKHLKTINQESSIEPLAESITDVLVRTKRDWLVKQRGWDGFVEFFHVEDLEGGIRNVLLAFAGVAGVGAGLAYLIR

Ki [nM] | SMILES
4.48 | CCC1CC(O)c2nccc(OC[C@H](C)C[C@H]3Cc4ccccc4[C@]34CC[C@@](Nc3cccc(Cl)c3)(C(=O)O)CC4)c21 (stereo partly drawn) [US20240150293, Example 624]
37.7 | C[C@@H](COc1cccc2ncsc12)C[C@H]1Cc2ccccc2[C@]12CC[C@@](Nc1cccc(Cl)c1)(C(=O)O)CC2 [US20240150293, Example 625]
3.91 | C[C@@H](COc1ccnc2[nH]ccc12)C[C@H]1Cc2ccccc2[C@]12CC[C@@](Nc1cccc(Cl)c1)(C(=O)O)CC2 [US20240150293, Example 626]
